Series [1] can be described thus: Toxicity in mouse CD4+ T cells assessed as induction of IL5 at 1000 ng/ml. Format: cell-based. Particulars: t-cell.
A short description of series [2]: Toxicity in mouse CD4+ T cells assessed as induction of IL5 at 500 ng/ml. The class given is cell-based. Particulars: t-cell.
In a further series the test system is Mus musculus. Nature of the series: Toxicity in ip dosed mouse relative to roridin A. Format: organism-based. Particulars: in vivo.
For the next series, the system named is K562. Briefly: Cytotoxicity against human K562 cells by MTT assay. The class given is functional, cell-based. In general terms: Tetrazolium dyes change colour on reduction, which living cells bring about.
Series [3] is described as follows: Toxicity in mouse CD4+ T cells assessed as induction of IL5 at 100 ng/ml. The class given is cell-based. Particulars: t-cell.
Series [4] is described as follows: Toxicity in ip dosed mouse. Format: organism-based. Particulars: in vivo.
The nature of series [5]: Toxicity in mouse CD4+ T cells assessed as induction of IL5 at 1.0 ng/ml. The class given is cell-based. Particulars: t-cell.
Series [6] can be described thus: Toxicity in mouse CD4+ T cells assessed as induction of IL5 at 0.05 ng/ml. Format: cell-based. Particulars: t-cell.

The values that follow come from ChEMBL document CHEMBL1149871, “Structure and conformational dynamics of trichothecene mycotoxins” (J Nat Prod, 2008).

As a reminder, the EC50 is the concentration giving half of the maximal effect. Read a high EC50 as lower potency in that assay. What is called LD50 is the dose at which mortality reaches 50%. A high value points to lower toxicity.

With `CC(=O)O[C@@H]1C[C@]2(C)[C@@]3(CO)[C@H](O)C(=O)C(C)=C[C@H]3O[C@H]1[C@@]21CO1` [3-ACETYLDEOXYNIVALENOL], the Activity result in series [1] is on record as “Toxic”.

Take `CC(=O)OC[C@]12[C@H](O)C(=O)C(C)=C[C@H]1O[C@@H]1[C@H](O)C[C@@]2(C)[C@]12CO2` [15-ACETYLDEOXYNIVALENOL]: in series [2], the Activity entry was “Toxic”.

Consider `CC(=O)OC[C@]12CCC(C)=C[C@H]1O[C@@H]1[C@H](O)[C@@H](OC(C)=O)[C@@]2(C)[C@]12CO2` [ANGUIDIN], for which the Activity in the series with Mus musculus came out at 23. Further, the EC50 with K562 amounted to 2.7 nM.

`CC1=C[C@H]2O[C@@H]3[C@H](O)C[C@](C)([C@@]2(CO)[C@H](O)C1=O)[C@]31CO1` [DEOXYNIVALENOL]: the Activity result in series [3] is listed as “Toxic”; in the series on Mus musculus, 4. In series [4], this compound gave an LD50 of 70 mg/kg. This compound also registered a concentration for a half-maximal effect (EC50) in the series on K562 of 1010 nM.

For the compound `CC(=O)OC[C@]12C[C@H](OC(=O)CC(C)C)C(C)=C[C@H]1O[C@@H]1[C@H](O)[C@@H](O)[C@@]2(C)[C@]12CO2` [HT-2 TOXIN], in the series on Mus musculus, the Activity is given as 9. The response in the series with K562 was half-maximal at 47.1 nM (EC50).

`CC(=O)OC[C@]12C[C@H](O)C(C)=C[C@H]1O[C@@H]1[C@H](O)[C@@H](OC(C)=O)[C@@]2(C)[C@]12CO2` [NEOSOLANIOL]: in the series with Mus musculus, the Activity amounted to 0.5. Further, the midpoint of the response in the series with K562, the EC50, lay at 392 nM.

For `CC1=C[C@H]2O[C@@H]3[C@H](O)[C@@H](O)[C@](C)([C@@]2(CO)[C@H](O)C1=O)[C@]31CO1` [NIVALENOL], the Activity entry in series [3] is recorded as “Toxic”. In series [4], this compound gave an LD50 of 4.1 mg/kg. This compound also showed an EC50 in the series with K562 of 960 nM.

For the compound `CC1=C[C@H]2O[C@@H]3C[C@@H]4OC(=O)/C=C/C=C/COCC/C([C@@H](O)[C@H](C)O)=C/C(=O)OC[C@@]2(CC1)[C@]4(C)[C@]31CO1` [SATRATOXIN H], in the series with Mus musculus, the Activity is reported as 1.

Consider `CC(=O)OC[C@]12C[C@H](OC(=O)CC(C)C)C(C)=C[C@H]1O[C@@H]1[C@H](O)[C@@H](OC(C)=O)[C@@]2(C)[C@]12CO2` [T-2 TOXIN], for which the Activity is given as 3 in the series on Mus musculus and “Toxic” in series [5]. This compound displayed an EC50 with K562 of 2.1 nM.

`CC1=C[C@H]2O[C@@H]3C[C@H]4OC(=O)/C=C\C=C\C(=O)OCC[C@@H](C)[C@H](O)C(=O)OC[C@@]2(CC1)[C@]4(C)[C@]31CO1` [VERRUCARIN A]: the Activity result in series [6] is “Toxic”; with Mus musculus, 1.5.
